Converted amounts (≈) assume the structure as drawn.

In one data set the test system is mouse L1210 leukemia. The settings on record: literature; cited from earlier work.
For data set [1] the following is noted: literature; cited from earlier work.
In a further data set the test system is dihydrofolate reductase. The settings on record: literature; cited from earlier work.
Data set [2] has as its system human leukemia cell line (CCRF-CEM). Description: IC50 determined in whole cell human leukemia cell line (CCRF-CEM). In kind it is cell-based. From the text: Representative IC50 values determined in whole cell human leukemia cell line (CCRF-CEM) are as follows: […]
Another data set deals with 6C3HED lymphosarcoma. Description: 6C3HED lymphosarcoma in mice. In kind it is in vivo.
In data set [3] the test system is C3H mammary adenocarcinoma. Description: C3H mammary adenocarcinoma implanted in mice, intraperitoneal treatment for five days. The format is in vivo. As to conditions: intraperitoneally for five days. As for the experimental part:
At a dosage of 100 mg/kg, 80% inhibition was observed.

As to `Nc1nc(N)c2cc(CCc3ccc(C(=O)N[C@@H](CCC(=O)O)C(=O)O)cc3)ccc2n1` [5,8,10-trideazaaminopterin], in the data set on mouse L1210 leukemia, the “activity against mouse L1210 leukemia” value is on record as “exhibits activity”.

In the case of `Nc1nc2ccc(CCc3ccc(C(=O)N[C@@H](CCC(=O)O)C(=O)O)cc3)cc2c(=O)[nH]1` [5,8,10-trideazafolic acid], the “activity against mouse L1210 leukemia” value in the data set with mouse L1210 leukemia is given as “only marginal activity”.

Take `Nc1nc2ncc(CNc3ccc(C(=O)N[C@@H](CCC(=O)O)C(=O)O)cc3)cc2c(=O)[nH]1` [5-Deazafolic acid]: the cytotoxicity result in data set [1] is reported as “only weakly cytotoxic”.

In the case of `Nc1nc(N)c2nc(CCc3ccc(C(=O)N[C@@H](CCC(=O)O)C(=O)O)cc3)ccc2n1` [8,10-Dideazaaminopterin], in data set [1], the antimetabolic activity entry is “active”.

`Nc1nc2ccc(CCc3ccc(C(=O)N[C@@H](CCC(=O)O)C(=O)O)cc3)nc2c(=O)[nH]1` [8,10-Dideazafolic acid]: the dihydrofolate reductase inhibition result in the data set with dihydrofolate reductase is given as “only marginally effective”.

Regarding `Nc1nc(N)c2nc(CCc3ccc(C(=O)N[C@@H](CCC(=O)O)C(=O)O)cc3)cnc2n1` [10-Deazaaminopterin], the antimetabolic activity result in data set [1] is given as “highly active”.

For `Nc1nc2ncc(CCc3ccc(C(=O)N[C@@H](CCC(=O)O)C(=O)O)cc3)nc2c(=O)[nH]1` [10-deazafolic acid], the antimetabolic activity result in data set [1] is “no significant activity”.

As for `Nc1nc(O)c2c(n1)NCC(CCc1cccc(C(=O)N[C@@H](CCC(=O)O)C(=O)O)c1)C2` (stereo partly drawn) [A, N-(3-[2-(2amino-4-hydroxy-5,6,7,8-tetrahydropyrido[2,3-d]pyrimidin-6-yl)ethyl]benzoyl)-L-glutamic acid], the IC50 (commonly the concentration that gives 50% inhibition) in data set [2] was 0.015 µg/mL (≈ 0.0338 µM).

On to `CN(Cc1cnc2nc(N)nc(N)c2n1)c1ccc(C(=O)N[C@@H](CCC(=O)O)C(=O)O)cc1` [Amethopterin, 10-methylaminopterin], for which the dihydrofolate reductase inhibition entry with dihydrofolate reductase was “inhibits dihydrofolate reductase”.

`Nc1nc(O)c2c(n1)NCC(CCc1ccc(C(=O)N[C@@H](CCC(=O)O)C(=O)O)c(F)c1)C2` (stereo partly drawn) [Compound H, N-(2-fluoro-4-[2-(2-amino-4-hydroxy-5,6,7,8-tetrahydropyrido[2,3-d]pyrimidin-6-yl)ethyl]benzoyl)-L-glutamic acid]: the “% INHIBITION” value in the data set with 6C3HED lymphosarcoma (dose 25 (MK/KG)) worked out at 94%; in the data set on 6C3HED lymphosarcoma (dose 50 (MK/KG)), 95%; in the data set with 6C3HED lymphosarcoma (dose 100 (MK/KG)), 100%; in the data set with 6C3HED lymphosarcoma (dose 200 (MK/KG)), 100%. Further, the TOXIC/TOTAL in the data set on 6C3HED lymphosarcoma (dose 25 (MK/KG)) was 0/9; with 6C3HED lymphosarcoma (dose 50 (MK/KG)), 0/10; in the data set with 6C3HED lymphosarcoma (dose 100 (MK/KG)), 0/10; in the data set on 6C3HED lymphosarcoma (dose 200 (MK/KG)), 0/10. For the same compound, the toxicity result in data set [3] (30 mg/kg and 100 mg/kg) was “No toxicity was observed”. The inhibition – broadly, the drop in the measured response relative to a control, in per cent – is reported as 72% in data set [3] (30 mg/kg) and 80% in data set [3] (100 mg/kg). Besides, half-maximal inhibition in data set [2] (IC50) required 0.004 µg/mL (≈ 0.00867 µM).

On to `Nc1nc(O)c2c(n1)NCC(CCc1ccc(F)c(C(=O)N[C@@H](CCC(=O)O)C(=O)O)c1)C2` (stereo partly drawn) [D, N-(2-fluoro-5-[2-(2-amino-4-hydroxy-5,6,7,8-tetrahydropyrido[2,3-d]pyrimidin-6-yl)ethyl]benzoyl)-L-glutamic acid], for which the IC50 in data set [2] worked out at 0.1 µg/mL (≈ 0.217 µM).

For `Nc1nc(O)c2c(n1)NCC(CCc1ccc(C(=O)N[C@@H](CCC(=O)O)C(=O)O)c(Cl)c1)C2` (stereo partly drawn) [F, N-(2-chloro-4-[2-(2-amino-4-hydroxy-5,6,7,8-tetrahydropyrido[2,3-d]pyrimidin-6-yl)ethyl]benzoyl)-L-glutamic acid], in data set [2], half-maximal inhibition (IC50) was put at 0.027 µg/mL (≈ 0.0565 µM).

The record behind these values is patent US4889859A, “Pyrido[2,3-d]pyrimidine derivatives” (priority 1988, dated 1989).
